{"source": "patent US8821568B2", "about": "“Implant modified with non-hydroxylated vitamin D precursors” (Numat Biomedical S.L., priority 2008, dated 2014)", "key": {"[1]": {"experiment": "HPLC quantification of 7-DHC and vitamin D3 on coated substrates before and after UV irradiation", "type": "physicochemical", "settings": "for m7-DHC (%): 100* m7-DHC/m7-DHC^0; for ηD3 (Vit D3 product yield): moles D3 after vs moles 7-DHC before irradiation", "protocol": "Substrates (polystyrene, 96 well plate; or titanium, polished titanium disks, 6.2 mm diameter, 2 mm height, inserted in a 96 well plate) were covered with 0.2 nmol of 7-DHC and Vitamin E (7-DHC: VitE=20:1, m:m) by dropping 10 μl of a 7-DHC/VitE solution in absolute ethanol. After leaving the solvent to evaporate for 15 min, samples were UV irradiated for 15 min at 302 nm. The amounts of 7-DHC and D3 present in the surfaces were quantified by HPLC. Results were compared with substrates without Vit E and with non-irradiated surfaces. Pure ethanol was used as control for all groups. Sunlight exposure was avoided for all surfaces.\nThe coating of each surface was extracted by adding 100 μl of ‘methanol/acetonitrile/tetrahydrofurane/water’ (67:16:2:15, v:v) to each well and shaking the plate for 2 min at 20 rpm. The content of three replicate wells was mixed to give a sample of ≈300 μl. An aliquot of 100 μl of the sample was injected in the HPLC system. Two replicate samples were prepared and analyzed for each group.\nThe analysis were carried out using a Waters liquid chromatographic system (Milford, Mass., USA), equipped with a refrigerated automatic injector WISP700 and a 600 pump system, connected to a Waters 996 photodiode array (PDA) detector. The software Empower was used for instrument control and data analysis. Detection was carried out at 282 nm.\nA Nova Pak C18 column (Waters) was used to separate sample components before detection. The column temperature was set to 30° C. Two solvents, A: ‘methanol/acetonitrile/tetrahydrofurane/water (67:16:2:15, v:v), and B: ‘methanol/acetonitrile/tetrahydrofurane’ (75:20:5, v:v) were used in gradient elution mode as the mobile phase. Solvents A and B were vacuum-filtered through a Nylon membrane (0.45 μm pore diameter) and degassed before use. The mobile phase flow rate was 1 ml·min^−1. The binary gradient used was as follows: from 5% B to 90% B in three minutes, held for 9.5 min at 90% B, from 90% B to 5% B in one minute and equilibrated between injections at the initial conditions for 5 min (total run time=15 min+5 min equilibration between injections).\nQuantification was performed by integration of the peak area of the corresponding analyte and interpolation of the peak area in 7-DHC or Vit D3 standard curves."}, "MC3T3-E1 cells [2]": {"test_system": "MC3T3-E1 cells", "experiment": "LDH activity (cytotoxicity) of cells on treated tissue culture plastic wells", "type": "cell-based, mouse", "settings": "TCP wells; after 24 hours; UV-treated (302 nm, 30 min); higher dose (20 nmols); compared to low control", "protocol": "To treat tissue culture plastic (TCP) wells, 10 μl of each dilution treatment were left on the surfaces and were allowed to air-dry for 15 min in the sterile flow bench. For UV-irradiation, a UV lamp of 302 nm was used at an intensity of irradiation of 6 mW/cm^2 (UVP, Upland, Calif., USA) during 30 minutes. Treated surfaces were immediately used for cell culture experiments.\nTo test the effect of the different treatments onto the plastic wells, 96-well plates made of polystyrene were used and the treatments with 7-DHC performed directly onto them. Cells grown onto untreated TCP were added as a control for all the experiments. Cells were seeded at a density of 30,000 cells/cm^2 and they were maintained in α-MEM supplemented with 10% FCS and antibiotics. […]\nLactate dehydrogenase (LDH) activity in the culture media was used as an index of cell death. LDH activity was determined spectrophotometrically after 30 min incubation at 25° C. of 50 μl of culture and 50 μl of the reaction mixture by measuring the oxidation of NADH at 490 nm in the presence of piruvate following the manufacturer's protocol (Cytotoxicity Detection Kit (LDH), Roche Diagnostics, Mannheim, Germany). […]"}, "MC3T3-E1 cells [3]": {"test_system": "MC3T3-E1 cells", "experiment": "ELISA of 25-D3 and 1,25-D3 released to the culture media, plastic wells", "type": "cell-based, mouse", "settings": "TCP, 48 hours, 2×10^−3 to 20 nmols", "protocol": "To test the effect of the different treatments onto the plastic wells, 96-well plates made of polystyrene were used and the treatments with 7-DHC performed directly onto them. Cells grown onto untreated TCP were added as a control for all the experiments. Cells were seeded at a density of 30,000 cells/cm^2 and they were maintained in α-MEM supplemented with 10% FCS and antibiotics. Culture media was collected after 48 hours, to test cytotoxicity and the production of the hydroxylated forms of vitamin D. Cells were harvested after 2 days of culture using Trizol reagent (Roche Diagnostics, Mannheim, Germany), to analyse early gene expression response of several osteoblast differentiation markers and enzymes involved in vitamin D synthesis using real-time RT-PCR.\n25-D3 and 1,25-D3 released to the culture media after two days of treatment were analyzed by enzyme-linked immunosorbent assay (ELISA). Aliquots from the culture media were centrifuged at 1800 rpm for 5 minutes at 4° C. and supernatants were used for 25-D3 and 1,25-D3 determination following instructions described by the manufacturer (Immunodiagnostic Systems Ltd, Boldon, Tyne and Wear, UK)."}, "[4]": {"settings": "Polystyrene, irradiated, UV 302 nm 15 min"}, "[5]": {"settings": "Titanium, irradiated, UV 302 nm 15 min"}}}
{"compound": "CC(C)CCC[C@@H](C)[C@H]1CC[C@H]2C3=CC=C4C[C@@H](O)CC[C@]4(C)[C@H]3CC[C@]12C", "note": "[7-DHC, 7-dehydrocholesterol]", "values": [{"measurement": "m7-DHC", "setting": "[1]; [4]", "value": "29.2 ± 2.0", "unit": "ng/well"}, {"measurement": "mD3", "setting": "[1]; [4]", "value": "11.8 ± 0.4", "unit": "ng/well"}, {"measurement": "m7-DHC (%)", "setting": "[1]; [4]", "value": 29, "unit": "%"}, {"measurement": "ηD3 (Vit D3 product yield)", "setting": "[1]; [4]", "value": "13.1 ± 0.4", "unit": "%"}, {"measurement": "m7-DHC", "setting": "[1]; Polystyrene, non irradiated", "value": "90.1 ± 2.9", "unit": "ng/well"}, {"measurement": "m7-DHC (%)", "setting": "[1]; Polystyrene, non irradiated", "value": 88, "unit": "%"}, {"measurement": "m7-DHC", "setting": "[1]; [5]", "value": "42.1 ± 3.4", "unit": "ng/well"}, {"measurement": "mD3", "setting": "[1]; [5]", "value": "16.4 ± 0.7", "unit": "ng/well"}, {"measurement": "m7-DHC (%)", "setting": "[1]; [5]", "value": 39, "unit": "%"}, {"measurement": "ηD3 (Vit D3 product yield)", "setting": "[1]; [5]", "value": "16.4 ± 0.7", "unit": "%"}, {"measurement": "m7-DHC", "setting": "[1]; Titanium, non irradiated", "value": "99.9 ± 3.0", "unit": "ng/well"}, {"measurement": "m7-DHC (%)", "setting": "[1]; Titanium, non irradiated", "value": 92, "unit": "%"}, {"measurement": "Cytotoxicity (LDH activity in culture media)", "setting": "MC3T3-E1 cells [2]", "value": "toxic effect"}, {"measurement": "Production of 25-D3 and 1,25-D3 (dose-response)", "setting": "MC3T3-E1 cells [3]; activated by UV irradiation", "value": "a dose-response was found"}, {"measurement": "Production of 25-D3 and 1,25-D3 (dose-response)", "setting": "MC3T3-E1 cells [3]; not UV-treated", "value": "no dose-response was detected"}]}
